The results in this text go back to US5256664A, “Antidepressant 3-halophenylpiperazinylpropyl derivatives of substituted triazolones and triazoldiones” (priority 1992, dated 1993).

One data set concerns serotonin receptors. As to the kind of experiment: in vitro binding, serotonin receptors. Particulars: in vitro binding testing. The text has this: (§1) The Formula I compounds are useful pharmacologic agents with psychotropic properties. […] Specifically, nefazodone triazoldione (XIb, "nef-triazoldione") was comparatively tested with nefazodone and the 5-hydroxyethyl metabolite ("OH-nefazodone"). […] The latter observation is significant in that agents with low affinity for alpha-receptors relative to serotonin type 2 receptors are less likely to elicit certain undesirable side effects, such as sedation and lowering of blood pressure.

Data set [1] relates to serotonin type 2 receptors. In words: in vitro binding, serotonin type 2 receptors. Particulars: compared with nefazodone and OH-nefazodone.
Source text: as §1

The next data set relates to dopamine receptor. As to the kind of experiment: dopamine receptor binding. The conditions noted are these: in vitro binding.
Source text: as §1

In another data set the test system is cholinergic receptor. As to the kind of experiment: cholinergic receptor binding. Particulars: in vitro binding.
Source text: as §1

A further data set concerns alpha-receptor. As to the kind of experiment: alpha-receptor binding. The conditions noted are these: in vitro binding.
Source text: as §1

The test system of data set [2] is serotonin type 2 receptor sites. In words: 5-HT2-mediated DOI-induced headshake response in rat. The format is in vivo. The conditions noted are these: acute effect. As for the experimental part:
The efficacy of nef-triazoldione at serotonin type 2 receptor sites in vivo was determined by examining its acute effect in a rat model based on the 5-HT2 -mediated DOI (chemically, 1-(2,5-dimethoxy-4-iodophenyl)-2-aminopropane)-induced headshake response. Cf: Bedard and Pycock, Neuropharmacology 16: 663-670 (1977). […] Thus the in vivo results which correlate with selective in vitro binding are indicative of useful antidepressant effects following systemic administration of these compounds.

Data set [3] is described as follows: circulating metabolite after nefazodone administration to humans and animals. The format is in vivo, humans and animals (rat and dog). The source says: The present invention concerns compounds of Formula I and their acid addition salts and/or hydrates. [drawing 3] In the foregoing structural formula the symbol R denotes halogen, preferably chloro, and trifluoromethyl; Z is hydrogen and [drawing 4] with R^1 being hydrogen, halogen, C1-4 alkoxy and trifluoromethyl; and n is an integer from 2-4. The symbol X is either an oxygen atom, providing a carbonyl moiety; or is an acetyl group. The single and dotted lines represent either a covalent single bond or a double bond. The compounds of Formula I exist then in two structural subclasses, Ia and Ib. [drawing 5] Compounds of formula I arose from investigations of the metabolism of the antidepressant drug nefazodone. […] Subsequently, this new major metabolite was isolated and identified as having the following structure: [drawing 6]
It should be appreciated that compound Ib could also be obtained by enzymatic (human liver microsomes) conversion of compound Ia in vitro. Administration of nefazodone or structural analogs to mammals will result in significant plasma levels of the related Ib compounds. By "significant plasma levels" is meant that these levels are from one to several-fold higher than those of the parent drug.

Data set [4] in a line: metabolite conversion experiment with in vitro human liver microsomal preparation. The conditions noted are these: compound as substrate. The format is in vitro ADME.
A short description of data set [5]: HPLC of plasma from dogs given nefazodone. Particulars: identified by HPLC retention time only. The format is in vivo, dog. The text has this: The similarity of HPLC retention times for both keto-nefazodone and the parent drug nefazodone in many HPLC systems, as well as the small amount of the compound complicate the detection of this putative metabolite.
The mark [6] stands for this setting: compared with nefazodone and OH-nefazodone.

On to `Cl.O=c1[nH]n(CCCN2CCN(c3cccc(Cl)c3)CC2)c(=O)n1CCOc1ccccc1` [nef-triazoldione, 2-(3-[4-(3-Chlorophenyl)-1-piperazinyl]propyl)-4-(2-phenoxyethyl)-4H-1,2,4-triazole-3,5(1H,2H)-dione hydrochloride], for which, in the data set on serotonin receptors, the “affinity for serotonin receptors” value is given as “displays affinity for serotonin receptors”. In data set [1], the “binding at serotonin type 2 receptors” value was “not as robust as for both nefazodone and OH-nefazodone”. Also, the dopamine receptor binding entry in the data set with dopamine receptor is “relatively inactive”. For the same compound, the cholinergic receptor binding entry in the data set with cholinergic receptor is “relatively inactive”. Further, the alpha-receptor binding entry in the data set with alpha-receptor was “relatively inactive”. Also, in the data set with alpha-receptor (setting [6]), the “affinity at alpha-receptor binding sites relative to reference compounds” value is listed as “lower affinity at alpha-receptor binding sites than the two reference compounds”. Besides, the “inhibition of the DOI-induced headshake response” value in [2] was “modest inhibition”. In addition, the “potency in DOI-induced headshake test relative to reference compounds” value in [2] (setting [6]) was “less potent than either nefazodone or OH-nefazodone”. Moreover, the “metabolite in urine or bile samples” value in data set [3] (following nefazodone administration) is “No indication of this circulating metabolite had been seen in urine or bile samples”. Also, in [3] (following nefazodone administration to humans and animals (rat and dog)), the “blood levels of metabolite” value was “Blood levels of a new and uncharacterized major metabolite of nefazodone were observed”.
For `CC(=O)c1nn(CCCN2CCN(c3cccc(Cl)c3)CC2)c(=O)n1CCOc1ccccc1.Cl` [keto-nefazodone, 2-(3-[4-(3-Chlorophenyl)-1-piperazinyl]propyl)-5-acetyl-2,4-dihydro-4-(2-phenoxyethyl)-3H-1,2,4-triazol-3-one hydrochloride], the “metabolite produced from substrate” value in data set [4] was “nefazodone triazoldione (XIb) was produced and isolated”. In [5], the “amount in plasma by HPLC” value is given as “small amounts”.
As for `CC(O)c1nn(CCCN2CCN(c3cccc(Cl)c3)CC2)c(=O)n1CCOc1ccccc1` (centres unmarked) [OH-nefazodone], in the data set with serotonin receptors, the “affinity for serotonin receptors” value is recorded as “displays affinity for serotonin receptors”.
In the case of `CCc1nn(CCCN2CCN(c3cccc(Cl)c3)CC2)c(=O)n1CCOc1ccccc1` [nefazodone, Nefazodone], the “affinity for serotonin receptors” value with serotonin receptors was “displays affinity for serotonin receptors”.
